Key:
A375 melanoma cells = test: MTT cytotoxicity test, A375; format: cell-based, human; details: A375, 72 h, ± S.D.
Method: The cytotoxic activity of the complexes and of the uncoordinated ligands was evaluated by the MTT test on a panel of human tumor cell lines containing examples of pancreatic (BxPC3), colorectal (HCT-15), breast (MCF-7), cervical (A431), and lung (A549) cancers as well as of melanoma (A375). For comparison purposes, the cytotoxicity of cisplatin was evaluated under the same experimental conditions.
Cisplatin was dissolved in 0.9% NaCl solution.
Human breast (MCF-7), colon (HCT-15), lung (A549) and pancreatic (BxPC3) carcinoma cell lines together with melanoma (A375) cells were obtained from American Type Culture Collection (ATCC, Rockville, MD). The human ovarian cancer cell line 2008 and its cisplatin resistant variant, C13*, were kindly provided by Prof. G. Marverti (Department of Biomedical Science of Modena University, Italy). Human cervical carcinoma (A431) cells were kindly provided by Prof. F. Zunino (Division of Experimental Oncology B, Istituto Nazionale dei Tumori, Milan, Italy). Cell lines were maintained in the logarithmic phase at 37 °C in a 5% carbon dioxide atmosphere using the following culture media containing 10% fetal calf serum (Euroclone, Milan, Italy), antibiotics (50 units/mL penicillin and 50 μg/mL streptomycin) and 2 mM L-glutamine: (i) RPMI-1640 medium (Euroclone) for 2008, C13*, MCF-7, HCT-15, A431 and BxPC3 cells, (ii) F-12 HAM’S (Sigma Chemical Co.) for A549 cells, iii) DMEM (Sigma Chemical Co.) for A375 cells.
The growth inhibitory effect toward tumor cells was evaluated by means of the MTT assay. Briefly, (3–8) × 10^3 cells/well, dependent upon the growth characteristics of the cell line, were seeded in 96-well microplates in growth medium (100 μL). After 24 h, the medium was removed and replaced with fresh medium containing the compound to be studied at the appropriate concentration. Triplicate cultures were established for each treatment. After 24, 48, or 72 h, each well was treated with 10 μL of a 5 mg/mL MTT saline solution and, after 5 h of incubation, 100 μL of a sodium dodecylsulfate (SDS) solution in 0.01 M HCl was added. After an overnight incubation, cell growth inhibition was detected by measuring the absorbance of each well at 570 nm using a Bio-Rad 680 microplate reader. The mean absorbance for each drug dose was expressed as a percentage of the control, untreated well absorbance and plotted vs drug concentration. The IC50 values, the drug concentrations that decrease the mean absorbance at 570 nm to 50% of that of untreated control wells, were calculated from the dose–response curves with the four-parameter logistic model (4PL). The final value is the mean ± S.D. of at least three independent experiments performed in triplicate.

[1] = Reduction with ascorbic acid followed by 195Pt NMR; format: physicochemical; details: 1 eq. ascorbic acid, 37 °C
Method: The reduction reaction of two representative complexes (1A and 1P) and the release of the indole carboxylic acid ligands was analyzed by HPLC using ascorbic acid as the reductant and 37 °C, pH 7 as physiological conditions (Fig. 4 and S1). The HPLC chromatograms of the reduction reaction of the complexes were compared with the chromatograms of pure samples of the carboxylic acid ligands. […] After 3 h incubation with 10 eq. of ascorbic acid 75% of 1P and 50% of 1A was reduced. […] We further studied the nature of the Pt(II) species produced upon the reduction of 1P and 1A by ^195Pt NMR. […] Unfortunately, monitoring the reduction reaction of the symetrically (2A and 2P) and unsymmetrically (3A–5A and 3P–5P) substituted dicarboxylato complexes was hampered by the poor solubility of the complexes in water and most organic solvents except DMF and DMSO. For the same reason the reduction potentials could not be determined by cyclic voltammetry. […]
Compounds 1A and 1P (10 mM) were incubated at 37 °C, respectively, in the presence of 10 mM ascorbic acid in 12 mM HEPES buffer at pH 7. […] The ^195Pt NMR spectra were recorded by inserting a tube with D2O into the NMR tube.

caspase-3 = test: Caspase-3 activation; format: cell-based, human; details: A375, IC50 doses, 48 h
Method: Caspase-3 cleavage reached values similar to that exerted by the well-known caspase-dependent apoptosis inducer staurosporine.
Protein aliquots (100 μg) were stained at 37 °C for 60 min with fluorescent caspase-3 substrate N-acetyl-Asp-Glu-Val-Asp-AMC (AMC = 7-amino-4-methylcoumarin) (Sigma Co.). Substrate hydrolysis was measured after 60 min by monitoring the release of AMC using a spectrofluorimeter (excitation at 370 nm, emission at 460 nm).

[2] = Stability in physiological saline by mass spectrometry; format: physicochemical; details: 0.9% NaCl
Method: Ten indole carboxylic acid Pt(IV) complexes with IAA (indole-3-acetic acid, 1A–5A) and IPA (indole-3-propionic acid, 1P–5P) were synthesized and the structures are depicted in Fig. 3. The monocarboxylato complexes 1A and 1P were prepared by reacting oxoplatin, c,c,t-[Pt(NH3)2Cl2(OH)2], with 0.8 eq. of the activated NHS-ester of the corresponding indole carboxylic acid. The dicarboxylato complexes with two indole acids in axial position (2A and 2P) were obtained using an excess of the NHS-ester activated acid (20 eq.), since the second hydroxo group of oxoplatin is much less reactive than the first one. The unsymmetrically substituted complexes (3A–5A and 3P–5P) were prepared by reaction of the monocarboxylate complexes 1A and 1P with the corresponding anhydrides. We chose three different anhydrides (benzoic, acetic and succinic anhydride) to vary the lipophilicity of the resulting Pt(IV) complexes. All the synthesized Pt(IV) complexes were characterized using elemental analysis, ESI-MS, FT-IR, ^1H and ^195Pt NMR spectroscopy. The purity of the complexes has been assessed through elemental analysis and–where solubility was not an issue–by high performance liquid chromatography (HPLC). The dicarboxylato complexes are poorly soluble in organic solvents. The proton NMR spectra of the complexes in DMSO-d6 show the typical signal of the NH3 protons which is a multiplet at around 6 ppm for the monocarboxylato complexes 1P and 1A (typical ^1JNH and ^2JPtH values around 50 Hz) while it is a broad signal around 6.5 ppm for the bis-substituted complexes (2–5A and 2–5P, Supplementary Information)[44]. The mass spectra of the complexes show a peak in the negative mode with the typical platinum isotope pattern corresponding to M − H^− or M + Cl^−. Stability studies on representative examples of the complexes (1A, 1P, 3A and 3P) via mass spectrometry confirm that the complexes are stable in physiological saline (0.9% NaCl) for at least 48 h (Supplementary Information).
Complexes 1A, 1P, 3A and 3P where dissolved in a minimum amount of DMF and diluted 1:20 with physiological saline (0.9% NaCl). Mass spectra were recorded at t = 0 and after 48 hours.

| Structure (SMILES) | IC50 (A375 melanoma cells) [µM] | time to complete reduction [1] [h] | caspase-3 activity, factor over untreated control cells (caspase-3) | stable in physiological saline [2] |
| --- | --- | --- | --- | --- |
| [NH2][Pt]([NH2])([OH])([Cl])([Cl])[O]C(=O)Cc1c[nH]c2ccccc12 [Complex 1A] | 1.31 ± 0.82 | 30 | ~5 | at least 48 h |
| [NH2][Pt]([NH2])([OH])([Cl])([Cl])[O]C(=O)CCc1c[nH]c2ccccc12 [Complex 1P, cis,cis,trans-[Pt(NH3)2Cl2(IPA)(OH)]] | 0.76 ± 0.02 | 24 | ~5 | at least 48 h |
| [NH2][Pt]([NH2])([Cl])([Cl])([O]C(=O)Cc1c[nH]c2ccccc12)[O]C(=O)c1ccccc1 [Complex 3A] | 3.53 ± 0.6 | – | – | at least 48 h |
| [NH2][Pt]([NH2])([Cl])([Cl])([O]C(=O)CCC(=O)O)[O]C(=O)Cc1c[nH]c2ccccc12 [Complex 4A] | 48.5 ± 1.48 | – | – | – |
| CC(=O)[O][Pt]([NH2])([NH2])([Cl])([Cl])[O]C(=O)Cc1c[nH]c2ccccc12 [Complex 5A] | 26.9 ± 4.04 | – | – | – |
